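Dose response: 5 concentrations. Exposure: 48 h. Format: 96-well plates. Endpoint: linear interpolation; highest concentration if not reached. At the GI50, growth is halved. TGI: concentration producing complete growth inhibition.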
Key:
Assay in all cases: growth of human tumour cells (NCI), 48 h
[1] = tested on: BT-549 breast
[2] = tested on: LOX IMVI melanoma
[3] = tested on: SF-268 CNS
[4] = tested on: MOLT-4 leukemia
[5] = tested on: MDA-MB-231 breast
[6] = tested on: MALME-3M melanoma
[7] = tested on: SK-MEL-5 melanoma
[8] = tested on: UO-31 renal
[9] = tested on: A549 NSCLC
[10] = tested on: UACC-257 melanoma
[11] = tested on: SN12C renal
[12] = tested on: RXF 393 renal
[13] = tested on: KM12 colon
[14] = tested on: HL-60(TB) leukemia
[15] = tested on: SW-620 colon
[16] = tested on: 786-0 renal
[17] = tested on: UACC-62 melanoma
[18] = tested on: MDA-MB-435
[19] = tested on: OVCAR-8 ovarian
[20] = tested on: MDA-N
[21] = tested on: SNB-19 CNS
[22] = tested on: K-562 leukemia
[23] = tested on: PC-3 prostate
[24] = tested on: SNB-75 CNS
[25] = tested on: HCT-116 colon
[26] = tested on: U251 CNS
[27] = tested on: OVCAR-5 ovarian
[28] = tested on: SK-MEL-2 melanoma
[29] = tested on: SF-539 CNS
[30] = tested on: SR leukemia
[31] = tested on: OVCAR-3 ovarian
[32] = tested on: SK-OV-3 ovarian
[33] = tested on: CCRF-CEM leukemia
[34] = tested on: IGROV1 ovarian
[35] = tested on: SF-295 CNS
[36] = tested on: M14 melanoma
[37] = tested on: HOP-62 NSCLC
[38] = tested on: SK-MEL-28 melanoma
[39] = tested on: CAKI-1 renal
[40] = tested on: A498 renal
[41] = tested on: TK-10 renal
[42] = tested on: HCT-15 colon
[43] = tested on: EKVX NSCLC
[44] = tested on: RPMI-8226 leukemia
[45] = tested on: HCC-2998 colon
[46] = tested on: OVCAR-4 ovarian
[47] = tested on: MCF7 breast
[48] = tested on: NCI-H460 lung
[49] = tested on: ACHN renal
[50] = tested on: HOP-92 NSCLC
[51] = tested on: DU-145 prostate
[52] = tested on: NCI/ADR-RES ovarian
[53] = tested on: HS 578T breast
[54] = tested on: HT29 colon
[55] = tested on: NCI-H522 lung
[56] = tested on: NCI-H23 lung
[57] = tested on: COLO 205 colon
[58] = tested on: T-47D breast
[59] = tested on: NCI-H226 lung
[60] = tested on: KM20L2 colon

CC(=O)O[C@H]1C(=O)[C@@]2(C)[C@H]([C@H](OC(=O)c3ccccc3)[C@]3(O)C[C@H](OC(=O)[C@H](O)[C@@H](NC(=O)OC(C)(C)C)c4ccco4)C(C)=C1C3(C)C)[C@]1(OC(C)=O)CO[C@@H]1C[C@@H]2O
TGI [1]: < 0.005 µM | TGI [2]: 22.3 µM | TGI [3]: > 50 µM | TGI [4]: 25.9 µM | TGI [5]: 14.7 µM | TGI [6]: > 47 µM | TGI [7]: 19 µM | TGI [8]: > 34.9 µM | TGI [9]: > 50 µM | TGI [10]: > 47.2 µM | TGI [11]: 36.3 µM | TGI [12]: 0.0338 µM | TGI [13]: > 50 µM | TGI [14]: 0.0241 µM | TGI [15]: > 50 µM | TGI [16]: > 50 µM | TGI [17]: > 33.4 µM | TGI [18]: 2.27 µM | TGI [19]: > 50 µM | TGI [20]: 0.0325 µM | TGI [21]: > 50 µM | TGI [22]: 13.4 µM | TGI [23]: > 50 µM | TGI [24]: < 0.005 µM | TGI [25]: 17.5 µM | TGI [26]: > 16.1 µM | TGI [27]: 9.96 µM | TGI [28]: 10.9 µM | TGI [29]: 0.0138 µM | TGI [30]: > 29 µM | TGI [31]: 0.0471 µM | TGI [32]: 7.38 µM | TGI [33]: 35.7 µM | TGI [34]: > 50 µM | TGI [35]: < 0.005 µM | TGI [36]: 25.2 µM | TGI [37]: 0.601 µM | TGI [38]: > 28.3 µM | TGI [39]: > 50 µM | TGI [40]: 22.7 µM | TGI [41]: 29 µM | TGI [42]: 12.3 µM | TGI [43]: > 50 µM | TGI [44]: > 28.2 µM | TGI [45]: 0.00901 µM | TGI [46]: > 50 µM | TGI [47]: 0.247 µM | TGI [48]: > 19 µM | TGI [49]: > 48.1 µM | TGI [50]: 43.5 µM | TGI [51]: < 0.005 µM | TGI [52]: 0.643 µM | TGI [53]: < 0.005 µM | TGI [54]: 0.24 µM | TGI [55]: 0.00875 µM | TGI [56]: > 40.9 µM | TGI [57]: < 0.005 µM | TGI [58]: > 50 µM

C/C1=C\CC[C@@]2(C)O[C@@H]2C[C@@H]2[C@H](C/C(C)=C/CC1)OC(=O)[C@]21CO1
TGI [1]: > 100 µM | TGI [2]: 44.6 µM | TGI [3]: > 100 µM | TGI [4]: > 100 µM | TGI [5]: > 100 µM | TGI [6]: > 100 µM | TGI [7]: > 100 µM | TGI [8]: > 100 µM | TGI [9]: > 100 µM | TGI [59]: > 100 µM | TGI [10]: > 100 µM | TGI [11]: > 100 µM | TGI [12]: > 100 µM | TGI [13]: > 100 µM | TGI [14]: > 100 µM | TGI [15]: > 100 µM | TGI [16]: > 100 µM | TGI [17]: > 100 µM | TGI [18]: > 100 µM | TGI [19]: > 100 µM | TGI [20]: > 100 µM | TGI [21]: > 100 µM | TGI [22]: > 100 µM | TGI [23]: > 100 µM | TGI [24]: > 100 µM | TGI [25]: > 100 µM | TGI [26]: > 100 µM | TGI [27]: > 100 µM | TGI [28]: > 100 µM | TGI [30]: > 100 µM | TGI [31]: > 100 µM | TGI [32]: > 100 µM | TGI [33]: > 100 µM | TGI [34]: > 100 µM | TGI [35]: > 100 µM | TGI [36]: > 100 µM | TGI [37]: > 100 µM | TGI [38]: > 100 µM | TGI [39]: > 100 µM | TGI [40]: > 100 µM | TGI [41]: > 100 µM | TGI [42]: > 100 µM | TGI [43]: > 100 µM | TGI [44]: > 100 µM | TGI [45]: > 100 µM | TGI [46]: > 100 µM | TGI [47]: > 100 µM | TGI [48]: 45.1 µM | TGI [49]: > 100 µM | TGI [50]: > 100 µM | TGI [51]: > 100 µM | TGI [52]: > 100 µM | TGI [53]: > 100 µM | TGI [54]: > 100 µM | TGI [55]: > 100 µM | TGI [56]: > 100 µM | TGI [57]: > 100 µM | TGI [58]: > 100 µM

O=C(N/N=C/c1cc(Cl)cc(Cl)c1[O-])c1ccccc1O.O=C(N/N=C/c1cc(Cl)cc(Cl)c1[O-])c1ccccc1O.[Fe+2]
TGI [2]: 86.5 µM | TGI [3]: 38.9 µM | GI50 [4]: 19.2 µM | TGI [4]: > 100 µM | GI50 [6]: 22 µM | TGI [6]: 61.9 µM | TGI [8]: 48.7 µM | GI50 [9]: 10.2 µM | TGI [9]: 35.2 µM | TGI [59]: 33.5 µM | TGI [10]: 85.8 µM | TGI [12]: 28.8 µM | GI50 [13]: 15.5 µM | TGI [13]: 41.8 µM | TGI [14]: 16.3 µM | TGI [15]: 48.2 µM | TGI [17]: 52.4 µM | TGI [19]: 34.3 µM | TGI [21]: 46.2 µM | TGI [22]: > 100 µM | TGI [24]: 72.9 µM | GI50 [25]: 11.4 µM | TGI [25]: 72.7 µM | TGI [26]: 22.6 µM | GI50 [28]: 14.9 µM | TGI [28]: 35.5 µM | GI50 [29]: 10.4 µM | TGI [29]: 28 µM | TGI [30]: 35.8 µM | TGI [31]: 38.5 µM | TGI [32]: 39.1 µM | TGI [33]: > 100 µM | TGI [34]: 56.5 µM | TGI [35]: 33.9 µM | TGI [36]: 34.7 µM | TGI [37]: 44.4 µM | TGI [38]: 40.6 µM | TGI [39]: 69.2 µM | TGI [41]: > 100 µM | TGI [42]: 19.3 µM | GI50 [43]: 18.1 µM | TGI [43]: 41.9 µM | TGI [45]: 26.2 µM | TGI [46]: 33.7 µM | TGI [48]: 38.5 µM | TGI [49]: 27.7 µM | GI50 [50]: 3.4 µM | TGI [50]: 8.33 µM | TGI [55]: 23.8 µM | GI50 [56]: 6 µM | TGI [56]: 31.6 µM | GI50 [60]: 14.1 µM | TGI [60]: 27.9 µM

C[C@@]12C[C@@H](c3ccccc3O1)N1CCCSC1=N2
TGI [1]: > 100 µM | TGI [2]: > 100 µM | TGI [3]: > 100 µM | TGI [4]: > 100 µM | TGI [5]: > 100 µM | TGI [6]: > 100 µM | TGI [7]: > 100 µM | TGI [8]: > 100 µM | TGI [59]: > 100 µM | TGI [10]: > 100 µM | TGI [11]: > 100 µM | TGI [12]: > 100 µM | TGI [13]: > 100 µM | TGI [14]: > 100 µM | TGI [15]: > 100 µM | TGI [16]: > 100 µM | TGI [17]: > 100 µM | TGI [18]: > 100 µM | TGI [19]: > 100 µM | TGI [20]: > 100 µM | TGI [21]: > 100 µM | TGI [22]: > 100 µM | TGI [23]: > 100 µM | TGI [24]: > 100 µM | TGI [25]: > 100 µM | TGI [26]: > 100 µM | TGI [27]: > 100 µM | TGI [28]: > 100 µM | TGI [29]: > 100 µM | TGI [30]: > 100 µM | TGI [31]: > 100 µM | TGI [32]: > 100 µM | TGI [33]: > 100 µM | TGI [34]: > 100 µM | TGI [35]: > 100 µM | TGI [36]: > 100 µM | TGI [37]: > 100 µM | TGI [38]: > 100 µM | TGI [39]: > 100 µM | TGI [40]: > 100 µM | TGI [41]: > 100 µM | TGI [42]: > 100 µM | TGI [43]: > 100 µM | TGI [44]: > 100 µM | TGI [45]: > 100 µM | TGI [46]: > 100 µM | TGI [47]: > 100 µM | TGI [48]: > 100 µM | TGI [49]: > 100 µM | TGI [50]: > 100 µM | TGI [51]: > 100 µM | TGI [52]: > 100 µM | TGI [53]: > 100 µM | TGI [54]: > 100 µM | TGI [55]: > 100 µM | TGI [56]: > 100 µM | TGI [57]: > 100 µM | TGI [58]: > 100 µM

Reference: PubChem BioAssay (NCI)
